Experimental data from US20120277257A1, “Methods of Treating Diseases, Pharmaceutical Compositions, and Pharmaceutical Dosage Forms” (MYREXIS, INC., priority 2009, published 2012).
Read-outs that look alike come from different tables or passages of the source.

Legend:
[1] = tested on: NCI-N87 Her2+ gastric cancer; assay: NCI-N87 (Her2+) gastric cancer xenograft in athymic nude mice; type: in vivo
Experimental: The efficacy of Compound 1 was compared to that of SNX-5422 (Serenex, Pfizer, Inc.) on the growth of NCI-N87 (Her2+) human gastric cancer cells as a xenograft in athymic nude mice model. Animals were dosed with either 200 mg/kg of Compound 1 on days 1 through 21 or 40 mg/kg of SNX-5422 thrice weekly for three weeks. Tumor volumes and body weights were determined from Days 1 to 39.
Five million NCI-N87 cells were implanted subcutaneously in the right flank of female nude mice (Hsd:athymic nude-Foxn1^nu). When the median tumor volume was approximately 123 mm^3, mice were randomized into three cohorts of ten animals. One cohort was dosed orally with vehicle, one cohort was dosed orally with Compound 1 (200 mg/kg) formulated in vehicle, and one cohort was dosed orally with SNX-5422 (40 mg/kg) formulated in dimethylacetamide/polyethylene glycol 300. Vehicle and Compound 1 were administered on days 1-21 and SNX-5422 was administered thrice weekly on Days 1, 3, 5, 8, 10, 12, 15, 17 and 19. The mice were observed daily for mortality and signs of toxicity.
Xenografted mice bearing N-87 tumors (median volume ˜125 mm^3) were dosed orally with Compound 1 for three weeks with the dosing schedules indicated in FIG. 4.
Additionally, xenografted mice bearing N-87 tumors (median volume ˜115 mm^3) were dosed orally with Compound 1 for twenty-one days at 200 mg/kg, once daily or 100 mg/kg, twice-daily as indicated in FIG. 5. Tumor growth inhibition (TGI) was monitored up to Day 39.

Hsp70 RNA = Hsp70 RNA induction in liver and tumor of N-87 xenografted mice (qRT-PCR); type: in vivo; settings: single oral dose 200 mg/kg
Experimental: Xenografted mice bearing N-87 tumors (median volume ˜425 mm^3) were given a single oral dose of Compound 1 (200 mg/kg). Blood, tumor and liver samples (n=6) were collected at 0.25, 0.5, 1, 2, 4, 8, 12, 24, 36 and 48 h post-dose and used to determine Compound 1 concentrations in the plasma and Hsp70 RNA levels in tumor and liver samples (See FIG. 6). Hsp70 RNA levels were determined by qRT-PCR.

[2] = Oral pharmacokinetics in female Sprague Dawley rats, single dose versus two doses; type: in vivo; settings: for Cmax / AUC(0-t) / concentration at 24 h: female, Sprague Dawley, rat, plasma; for AUC(0-t): read-out: AUC(0-24); for concentration at 24 h: read-out: C24hr
Experimental: Female Sprague Dawley rats (n=4 or 5) were dosed orally once with 50 mg/kg (See FIG. 9A) or twice with 25 mg/kg (See FIG. 9B) of Compound 1. Pharmacokinetic parameters are outlined in Table 4 below. […] Effective plasma concentrations of Compound 1 were maintained with twice a day dosing.

[3] = tested on: NCI-H69 small cell lung cancer; assay: NCI-H69 small cell lung cancer xenograft; type: in vivo, mice; settings: 200 mg/kg oral, daily for 27 days
Colo205 colon cancer = Colo205 colon cancer xenograft; type: in vivo, mice; settings: daily for 21 days
DU-145 prostate cancer = DU-145 prostate cancer xenograft; type: in vivo, mice; settings: 200 mg/kg oral, 5-days-on/2-days-off, after 5 cycles
B16 melanoma allograft = assay: B16 melanoma allograft; type: in vivo, mice; settings: 200 mg/kg oral, daily for 8 days
[4] = tested on: NCI-N87 Her2+ gastric cancer; assay: NCI-N87 (Her2+) gastric cancer xenograft in athymic nude mice; type: in vivo; settings: for TGI (tumor growth inhibition): daily for 21 days
K-562 erythroleukemia = K-562 erythroleukemia xenograft; type: in vivo, mice; settings: daily for 18 days
OPM-2 multiple myeloma = OPM-2 multiple myeloma xenograft; type: in vivo, mice; settings: 200 mg/kg oral, daily for 21 days, p = 0.34
[5] = Phase I clinical trial, dose limiting toxicities; type: in vivo, human; settings: 50 to 340 mg/m^2 oral, 1 to 13 (28-day) cycles
Experimental: A human clinical study was initiated at a starting dose of 50 mg/m^2. Subjects had recurrent cancer refractory to available systemic therapy. Compound 1 was administered daily by mouth in tablet form for 21 consecutive days in a 28 day cycle to each enrolled subject. For determination of drug levels in humans, plasma was collected prior to drug administration and 0.5, 1, 2, 3, 4, 6, 8, and 24 hours post-dosing on cycle 1 day 1, and cycle 1 day 21. Plasma was collected pre-dose only for cycle 1 day 8. Peripheral blood mononuclear cells (PBMCs) were collected prior to drug administration, and typically 8 and 24 hours post-dose on cycle 1 day 1 and cycle 1 day 21 in order to quantify Hsp70 protein levels as an exploratory biomarker. Patients were men and women with metastatic cancer, ranged in age from 45 to 85 years, and received doses ranging from 50 mg/m^2 to 340 mg/m^2, with a total daily dose of 100-740 mg (Tables 2A and 2B).

[6] = tested on: BT-474 HER2+ breast cancer; assay: BT-474 HER2+ breast cancer xenograft; type: in vivo, mice; settings: 200 mg/kg oral, daily for 70 days
[7] = 25 mg/kg oral, two doses 12 h apart

Structure (SMILES): C[C@H](O)C(=O)N1CCC(CCn2c(Sc3cc4c(cc3Br)OCO4)nc3c(N)ncnc32)CC1 [Compound 1, (2S)-1-[4-(2-{6-amino-8-[(6-bromo-1,3-benzodioxol-5-yl)thio]-9H-purin-9-yl}ethyl)piperidin-1-yl]-1-oxopropan-2-ol]
- tumor regression ([1]; 200 mg/kg oral, 5-days-on/2-days-off, after 3 cycles): 44% regression after 3 cycles
- tumor regression ([1]; 200 mg/kg oral, QOD (once every-other-day) for three weeks, Day 21): 7%
- tumor regression ([1]; 200 mg/kg oral, daily for 21 days, Day 21 (dosing schedule study)): 40%
- decrease in median tumor volume ([1]; 200 mg/kg oral, days 1-21, by day 21): 40%
- TGI (tumor growth inhibition) ([1]; 200 mg/kg oral, twice weekly for three weeks, Day 21): 100%
- TGI (tumor growth inhibition) ([1]; 200 mg/kg oral, weekly (Days 1, 8, 15), Day 21, p = 0.1): 54% TGI (p = 0.1) Day 21
- TGI (tumor growth inhibition) ([1]; 400 mg/kg oral, twice weekly for three weeks, Day 21): 95%
- tumor growth inhibition compared with SNX-5422 ([1]; Compound 1 200 mg/kg daily vs SNX-5422 40 mg/kg thrice weekly): as effective as SNX-5422
- Hsp70 RNA induction in liver (Hsp70 RNA; 4 hours post-dose): ~70 fold
- Hsp70 RNA induction in tumor tissue (Hsp70 RNA; 4 hours post-dose): ~110 fold
- time at which Hsp70 RNA induction reverts to baseline (Hsp70 RNA; post-dose): ≤ 12 h
- Cmax [2, 7]: 1110 ng/mL
- AUC(0-t) [2, 7]: 5120 ng·h/mL
- concentration at 24 h [2, 7]: 46.7 ng/mL
- Cmax ([2]; 50 mg/kg oral, single dose): 2120 ng/mL
- AUC(0-t) ([2]; 50 mg/kg oral, single dose): 5840 ng·h/mL
- concentration at 24 h ([2]; 50 mg/kg oral, single dose): 1.5 ng/mL
- plasma concentration at 24 h with BID dosing versus single dose ([2]; oral): significantly higher
- time to tumor volume 1,500 mm^3 ([3]; p = 0.01): Extended time to 1,500 mm^3
- treated mice with tumors <1,500 mm^3 ([3]; compared to 2/9 for vehicle arm): (p = 0.01); 8/10 treated mice
- TGI (tumor growth inhibition) (Colo205 colon cancer; 150 mg/kg oral, p = 0.3): 72% TGI (p = 0.3) 150 mg/kg;
- TGI (tumor growth inhibition) (Colo205 colon cancer; 200 mg/kg oral, p = 0.03): 87% TGI (p = 0.03) 200 mg/kg
- TGI (tumor growth inhibition), average (DU-145 prostate cancer): Average of ~80% TGI after 5
- TGI (tumor growth inhibition) (B16 melanoma allograft): 50% TGI
- TGI (tumor growth inhibition) ([4]; 100 mg/kg oral, Day 21, p = 0.003): 82% TGI (p = 0.003) Day 21
- TGI (tumor growth inhibition) ([4]; 125 mg/kg oral): 100% TGI (125 mg/kg)
- tumor regression ([4]; 200 mg/kg oral, daily for 21 days (50, 75, 125, 200 mg/kg study)): 50% regression (200 mg/kg);
- TGI (tumor growth inhibition) (K-562 erythroleukemia; 150 mg/kg oral, p = 0.14): 82% TGI (p = 0.14) 150 mg/kg,
- TGI (tumor growth inhibition) (K-562 erythroleukemia; 200 mg/kg oral, p = 0.05): 97% TGI (p = 0.05)
- TGI (tumor growth inhibition) (OPM-2 multiple myeloma): 71% TGI (p = 0.34)
- dose limiting toxicities [5]: No dose limiting toxicities have been reported to date
- tumor regression [6]: 17% regression
